The values below are quoted from earlier work in patent US6586576B2, “Preparation method of azithromycin hydrates” (Teva Pharmaceutical Industries LTD, priority 2000, dated 2003).

Read-outs that look alike come from different tables or passages of the source.

For series [1] the following is noted: crystal/hydrate form, per EP 298 650 and CN 1,093,370.

As to `CC[C@H]1OC(=O)[C@H](C)[C@@H](O[C@H]2C[C@@](C)(OC)[C@@H](O)[C@H](C)O2)[C@H](C)[C@@H](O[C@@H]2O[C@H](C)C[C@H](N(C)C)[C@H]2O)[C@](C)(O)C[C@@H](C)CN(C)[C@H](C)[C@@H](O)[C@]1(C)O` [azithromycin monohydrate], the hygroscopic nature entry in series [1] (monohydrate) was “hygroscopic”.
Take `CC[C@H]1OC(=O)[C@H](C)[C@@H](O[C@H]2C[C@@](C)(OC)[C@@H](O)[C@H](C)O2)[C@H](C)[C@@H](O[C@@H]2O[C@H](C)C[C@H](N(C)C)[C@H]2O)[C@](C)(O)C[C@@H](C)CN(C)[C@H](C)[C@@H](O)[C@]1(C)O` [azithromycin dihydrate]: the hygroscopic nature result in series [1] (dihydrate) is listed as “less hygroscopic than the previously known azithromycin monohydrate”.
Take `CC[C@H]1OC(=O)C(C)C(OC2CC(C)(OC)C(O)C(C)O2)C(C)C(OC2OC(C)CC(N(C)C)C2O)C(C)(O)CC(C)CN(C)C(C)C(O)C1(C)O` (stereo partly drawn) [azithromycin, 9-deoxo-9a-aza-9a-methyl-9a-homoerythromycin A]: the “stability under acidic conditions” value is “not stable”.
